According to patent USRE48461E1, “Modulation of androgen receptor expression” (Ionis Pharmaceuticals, Inc., priority 2012, dated 2021):
Oligonucleotides are written 5' to 3', each unit as a sugar letter and its base; * is a phosphorothioate linkage, no mark a phosphodiester; rarer units and linkages stand in square brackets, end groups in braces. Plain capitals give the bases only. e = 2'-O-(2-methoxyethyl) (MOE); k = constrained ethyl (cEt); [5mC] = 5-methylcytosine; d = 2'-deoxy (DNA)

Legend:
AR mRNA [1] = assay: Dose-dependent antisense inhibition of human AR in HuVEC cells (electroporation, qRT-PCR RTS3559, IC50); format: cell-based; details: HuVEC
In short: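 HuVEC cells dosed with antisense oligonucleotides by electroporation and treated approximately 16 hours. AR mRNA quantified by real-time qPCR with primer probe set RTS3559 and normalised to total RNA by RIBOGREEN; IC50 from dose-response.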

AR mRNA [2] = assay: Antisense inhibition of human AR in HuVEC cells, single concentration (electroporation, qRT-PCR RTS3559); format: cell-based
In short: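 AR mRNA levels were measured with human primer-probe set RTS3559 and adjusted for total RNA (RIBOGREEN). Cells were HuVEC, with each antisense oligonucleotide delivered by electroporation at one concentration.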

[3] = Table 35, electroporation, approximately 16 hours
[4] = Table 24, 1,000 nM oligonucleotide, electroporation, approximately 24 hours, relative to untreated control
[5] = 500 nM ASO, electroporation, ~24 h, Table 1
[6] = Table 30, electroporation, approximately 16 hours
[7] = Table 32, electroporation, approximately 16 hours
[8] = Table 19, 500 nM oligonucleotide, electroporation, approximately 24 hours, relative to untreated control
[9] = Table 31, electroporation, approximately 16 hours
[10] = Table 36, electroporation, approximately 16 hours
[11] = Table 25, 1,000 nM oligonucleotide, electroporation, approximately 24 hours, relative to untreated control

584162 (kT*kG*kG*dA*dT*dT*dG*dT*dA*dA*dA*dT*dT*kA*k[5mC]*kG; antisense) [compound 584162]
percent inhibition of AR, 46.9 nM (AR mRNA [1]; [3]): 24% | percent inhibition of AR, 187.5 nM (AR mRNA [1]; [3]): 45% | percent inhibition of AR, 750.0 nM (AR mRNA [1]; [3]): 80% | percent inhibition of AR, 3000.0 nM (AR mRNA [1]; [3]): 92% | IC50 (AR mRNA [1]; [3]): 180 nM | % inhibition (AR mRNA [2]; [4]): 82%

549379 (kG*k[5mC]*kT*d[5mC]*d[5mC]*d[5mC]*dG*d[5mC]*d[5mC]*dT*d[5mC]*dG*d[5mC]*k[5mC]*kG*k[5mC]; antisense) [compound 549379]
percent inhibition of AR (AR mRNA [1]; 55.6 nM, ~16 h, Table 3): 11% | percent inhibition of AR (AR mRNA [1]; 166.7 nM, ~16 h, Table 3): 51% | percent inhibition of AR (AR mRNA [1]; 500.0 nM, ~16 h, Table 3): 68% | percent inhibition of AR (AR mRNA [1]; 1500.0 nM, ~16 h, Table 3): 88% | IC50 (AR mRNA [1]; ~16 h, Table 3): 237 nM | % inhibition (AR mRNA [2]; [5]): 86%

584145 (kA*kT*kG*dG*dG*dA*dG*dT*dA*dA*d[5mC]*dT*dT*kT*kT*kG; antisense) [compound 584145]
percent inhibition of AR, 46.9 nM (AR mRNA [1]; [3]): 6% | percent inhibition of AR, 187.5 nM (AR mRNA [1]; [3]): 32% | percent inhibition of AR, 750.0 nM (AR mRNA [1]; [3]): 63% | percent inhibition of AR, 3000.0 nM (AR mRNA [1]; [3]): 88% | IC50 (AR mRNA [1]; [3]): 360 nM | % inhibition (AR mRNA [2]; [4]): 76%

549347 (k[5mC]*kT*kT*d[5mC]*dG*d[5mC]*dG*d[5mC]*dA*d[5mC]*dG*d[5mC]*dT*k[5mC]*kT*kG; antisense) [compound 549347]
percent inhibition of AR (AR mRNA [1]; 55.6 nM, ~16 h, Table 4): 15% | percent inhibition of AR (AR mRNA [1]; 166.7 nM, ~16 h, Table 4): 37% | percent inhibition of AR (AR mRNA [1]; 500.0 nM, ~16 h, Table 4): 62% | percent inhibition of AR (AR mRNA [1]; 1500.0 nM, ~16 h, Table 4): 71% | IC50 (AR mRNA [1]; ~16 h, Table 4): 357 nM | % inhibition (AR mRNA [2]; [5]): 84%

583727 (antisense kG*kA*kT*dT*d[5mC]*dT*dG*dG*dA*dA*dA*dG*d[5mC]*kT*k[5mC]*k[5mC]) [compound 583727]
percent inhibition of AR, 46.9 nM (AR mRNA [1]; [6]): 18% | percent inhibition of AR, 187.5 nM (AR mRNA [1]; [6]): 49% | percent inhibition of AR, 750.0 nM (AR mRNA [1]; [6]): 70% | percent inhibition of AR, 3000.0 nM (AR mRNA [1]; [6]): 76% | IC50 (AR mRNA [1]; [6]): 290 nM | % inhibition (AR mRNA [2]; 500 nM ASO, ~24 h, Table 18): 40%

583637 (antisense kA*kT*k[5mC]*dT*d[5mC]*dT*dG*dG*d[5mC]*dT*d[5mC]*d[5mC]*dG*k[5mC]*kA*k[5mC]) [compound 583637]
percent inhibition of AR, 46.9 nM (AR mRNA [1]; [6]): 22% | percent inhibition of AR, 187.5 nM (AR mRNA [1]; [6]): 32% | percent inhibition of AR, 750.0 nM (AR mRNA [1]; [6]): 59% | percent inhibition of AR, 3000.0 nM (AR mRNA [1]; [6]): 75% | IC50 (AR mRNA [1]; [6]): 450 nM | % inhibition (AR mRNA [2]; 500 nM ASO, ~24 h, Table 17): 43%

583749 (antisense kA*kG*kG*dT*dG*d[5mC]*dT*dG*d[5mC]*dG*d[5mC]*dT*d[5mC]*kG*k[5mC]*kG) [compound 583749]
percent inhibition of AR, 46.9 nM (AR mRNA [1]; [7]): 34% | percent inhibition of AR, 187.5 nM (AR mRNA [1]; [7]): 40% | percent inhibition of AR, 750.0 nM (AR mRNA [1]; [7]): 75% | percent inhibition of AR, 3000.0 nM (AR mRNA [1]; [7]): 87% | IC50 (AR mRNA [1]; [7]): 170 nM | % inhibition (AR mRNA [2]; [8]): 36%

569228 (antisense eT*eT*kG*kA*kT*dT*dT*dA*dA*dT*dG*dG*kT*kT*kG*e[5mC]) [compound 569228]
percent inhibition of AR (AR mRNA [1]; 31.25 nM, ~16 h, Table 8): 26% | percent inhibition of AR (AR mRNA [1]; 62.5 nM, ~16 h, Table 8): 43% | percent inhibition of AR (AR mRNA [1]; 62.5 nM, ~16 h, Table 10): 29% | percent inhibition of AR (AR mRNA [1]; 125.0 nM, ~16 h, Table 8): 62% | percent inhibition of AR (AR mRNA [1]; 125.0 nM, ~16 h, Table 10): 44% | percent inhibition of AR (AR mRNA [1]; 500.0 nM, ~16 h, Table 8): 88% | percent inhibition of AR (AR mRNA [1]; 500.0 nM, ~16 h, Table 10): 77% | percent inhibition of AR (AR mRNA [1]; 1000.0 nM, ~16 h, Table 8): 92% | percent inhibition of AR (AR mRNA [1]; 1000.0 nM, ~16 h, Table 10): 87% | IC50 (AR mRNA [1]; ~16 h, Table 8): 90 nM | IC50 (AR mRNA [1]; ~16 h, Table 10): 158 nM | % inhibition (AR mRNA [2]; 250 nM ASO, ~24 h, Table 7): 67%

583789 (antisense kT*kG*k[5mC]*dA*dT*dG*dG*dT*dG*d[5mC]*dT*dG*dG*k[5mC]*k[5mC]*kT) [compound 583789]
percent inhibition of AR, 46.9 nM (AR mRNA [1]; [9]): 30% | percent inhibition of AR, 187.5 nM (AR mRNA [1]; [9]): 49% | percent inhibition of AR, 750.0 nM (AR mRNA [1]; [9]): 71% | percent inhibition of AR, 3000.0 nM (AR mRNA [1]; [9]): 85% | IC50 (AR mRNA [1]; [9]): 190 nM | % inhibition (AR mRNA [2]; [8]): 39%

584233 (kG*kG*kA*dT*dT*d[5mC]*dT*d[5mC]*dT*dA*d[5mC]*dA*d[5mC]*kA*k[5mC]*kA; antisense) [compound 584233]
percent inhibition of AR, 46.9 nM (AR mRNA [1]; [10]): 0% | percent inhibition of AR, 187.5 nM (AR mRNA [1]; [10]): 30% | percent inhibition of AR, 750.0 nM (AR mRNA [1]; [10]): 66% | percent inhibition of AR, 3000.0 nM (AR mRNA [1]; [10]): 86% | IC50 (AR mRNA [1]; [10]): 390 nM | % inhibition (AR mRNA [2]; [11]): 62%

549362 (k[5mC]*k[5mC]*k[5mC]*dG*dA*dA*dG*d[5mC]*dT*dG*dT*dT*d[5mC]*k[5mC]*k[5mC]*k[5mC]; antisense) [compound 549362]
percent inhibition of AR (AR mRNA [1]; 55.6 nM, ~16 h, Table 3): 10% | percent inhibition of AR (AR mRNA [1]; 166.7 nM, ~16 h, Table 3): 23% | percent inhibition of AR (AR mRNA [1]; 500.0 nM, ~16 h, Table 3): 57% | percent inhibition of AR (AR mRNA [1]; 1500.0 nM, ~16 h, Table 3): 74% | IC50 (AR mRNA [1]; ~16 h, Table 3): 447 nM | % inhibition (AR mRNA [2]; [5]): 85%

549381 (kG*k[5mC]*k[5mC]*dG*d[5mC]*d[5mC]*dA*dG*dG*dG*dT*dA*d[5mC]*k[5mC]*kA*k[5mC]; antisense) [compound 549381]
percent inhibition of AR (AR mRNA [1]; 55.6 nM, ~16 h, Table 3): 14% | percent inhibition of AR (AR mRNA [1]; 166.7 nM, ~16 h, Table 3): 33% | percent inhibition of AR (AR mRNA [1]; 500.0 nM, ~16 h, Table 3): 71% | percent inhibition of AR (AR mRNA [1]; 1500.0 nM, ~16 h, Table 3): 91% | IC50 (AR mRNA [1]; ~16 h, Table 3): 261 nM | % inhibition (AR mRNA [2]; [5]): 89%

583667 (antisense k[5mC]*kG*k[5mC]*dT*d[5mC]*dT*dG*dA*d[5mC]*dA*dG*d[5mC]*d[5mC]*kT*k[5mC]*kA) [compound 583667]
percent inhibition of AR, 46.9 nM (AR mRNA [1]; [6]): 35% | percent inhibition of AR, 187.5 nM (AR mRNA [1]; [6]): 55% | percent inhibition of AR, 750.0 nM (AR mRNA [1]; [6]): 73% | percent inhibition of AR, 3000.0 nM (AR mRNA [1]; [6]): 82% | IC50 (AR mRNA [1]; [6]): 140 nM | % inhibition (AR mRNA [2]; 500 nM ASO, ~24 h, Table 17): 42%

583728 (antisense kG*k[5mC]*kT*d[5mC]*dT*dG*dG*dA*dA*d[5mC]*dA*dG*dA*kT*kT*k[5mC]) [compound 583728]
percent inhibition of AR, 46.9 nM (AR mRNA [1]; [6]): 9% | percent inhibition of AR, 187.5 nM (AR mRNA [1]; [6]): 48% | percent inhibition of AR, 750.0 nM (AR mRNA [1]; [6]): 67% | percent inhibition of AR, 3000.0 nM (AR mRNA [1]; [6]): 70% | IC50 (AR mRNA [1]; [6]): 400 nM | % inhibition (AR mRNA [2]; 500 nM ASO, ~24 h, Table 18): 45%

583856 (kA*kA*k[5mC]*d[5mC]*dT*dT*dT*dG*d[5mC]*dA*dT*dT*d[5mC]*kG*kG*k[5mC]; antisense) [compound 583856]
percent inhibition of AR, 46.9 nM (AR mRNA [1]; [7]): 31% | percent inhibition of AR, 187.5 nM (AR mRNA [1]; [7]): 55% | percent inhibition of AR, 750.0 nM (AR mRNA [1]; [7]): 74% | percent inhibition of AR, 3000.0 nM (AR mRNA [1]; [7]): 89% | IC50 (AR mRNA [1]; [7]): 140 nM | % inhibition (AR mRNA [2]; Table 20, 500 nM oligonucleotide, electroporation, approximately 24 hours, relative to untreated control): 45%

584242 (k[5mC]*k[5mC]*kA*dT*dT*dT*dG*dT*dG*d[5mC]*d[5mC]*dA*dA*kA*k[5mC]*k[5mC]; antisense) [compound 584242]
percent inhibition of AR, 46.9 nM (AR mRNA [1]; [10]): 12% | percent inhibition of AR, 187.5 nM (AR mRNA [1]; [10]): 38% | percent inhibition of AR, 750.0 nM (AR mRNA [1]; [10]): 66% | percent inhibition of AR, 3000.0 nM (AR mRNA [1]; [10]): 93% | IC50 (AR mRNA [1]; [10]): 270 nM | % inhibition (AR mRNA [2]; [11]): 62%
